US20110275643A1, “AROYLQUINOLINE COMPOUNDS” (NATIONAL HEALTH RESEARCH INSTITUTES, priority 2010, published 2011)
Read-outs that look alike come from different tables or passages of the source.

Key:
[1] = tested on: stomach carcinoma MKN45 cells; assay: In vitro cell growth inhibition, methylene blue dye assay, MKN45 cells; format: cell-based, Human; details: Homo sapiens, read-out: IC50 on the proliferation of cells, MKN45
Experimental: (§1) Human oral epidermoid carcinoma KB cells, non-small-cell lung carcinoma H460 cells, colorectal carcinoma HT29 cells and stomach carcinoma MKN45 cells were maintained in RMPI-1640 medium supplied with 5% fetal bovine serum (FBS). […] Cells in logarithmic phase were cultured at a density of 5000 cells/mL/well in a 24-well plate. KB-VIN10 cells were cultured in drug-free medium for 3 days prior to use. The cells were exposed to various concentrations of the test drugs for 72 hours. The methylene blue dye assay was used to evaluate the effect of the test compounds on cell growth (Finlay et al., 1984).

[2] = tested on: oral epidermoid carcinoma KB cells; assay: In vitro cell growth inhibition, methylene blue dye assay, KB cells; format: cell-based, Human; details: Homo sapiens
Experimental: as §1

[3] = tested on: non-small-cell lung carcinoma H460 cells; assay: In vitro cell growth inhibition, methylene blue dye assay, H460 cells; format: cell-based, Human; details: Homo sapiens, read-out: IC50 on the proliferation of cells, H460
Experimental: as §1

[4] = tested on: colorectal carcinoma HT29 cells; assay: In vitro cell growth inhibition, methylene blue dye assay, HT29 cells; format: cell-based, Human; details: Homo sapiens, read-out: IC50 on the proliferation of cells, HT29
Experimental: as §1

[5] = tested on: KB-VIN10 cells (overexpression of P-gp170/MDR); assay: In vitro cell growth inhibition, methylene blue dye assay, MDR-positive KB-VIN10 cells; format: cell-based, Human; details: Homo sapiens, read-out: IC50 on the proliferation of cells, KB-VIN10
Experimental: as §1

[6] = tested on: five cancer cell lines (KB, H460, HT29, MKN45, KB-VIN10); assay: Antiproliferative activity, mean over five cancer cell lines; format: cell-based, Human
Experimental: The synthesized compounds 5 to 17 were evaluated for antiproliferative activities against four carcinoma cells, oral epidermoid carcinoma KB cells, non-small-cell lung carcinoma H460 cells, colorectal carcinoma HT29 cells and stomach carcinoma MKN45 cells, as well as the MDR-positive cell lines KB-VIN10, that overexpressed P-gp 170/MDR (Table 1). The controls were compounds 1 and 3.
as §1

[7] = MKN-45, MKN45 cells, 72 hours, mean ± SD
[8] = KB cells, 72 hours, mean ± SD, read-out: IC50 on the proliferation of cells, KB
[9] = NCI-H460, H460 cells, 72 hours, mean ± SD
[10] = HT-29, HT29 cells, 72 hours, mean ± SD
[11] = KB-VIN10 cells, 72 hours, mean ± SD
[12] = read-out: 50% Inhibition concentration (IC50) on the proliferation of KB cells line, Table 2, KB cells

melting point [°C]	IC50 [2, 12] [nM]	SMILES	further results
107 to 109		COc1cc(C(=O)c2cnc3ccccc3c2)cc(OC)c1OC [Compound 6, 3-(3′,4′,5′-trimethoxybenzoyl)quinoline]	IC50 [1, 7]: 562 ± 42 nM; IC50 [2, 8]: 1800 ± 100 nM; IC50 [3, 9]: 1600 ± 380 nM; IC50 [4, 10]: 1000 ± 210 nM; IC50 [5, 11]: 1100 ± 220 nM
145 to 147		COc1cc(C(=O)c2cccc3ncccc23)cc(OC)c1OC [Compound 8, 5-(3′,4′,5′-trimethoxybenzoyl)quinoline]	IC50 [1, 7]: 1200 ± 150 nM; IC50 [2, 8]: 2900 ± 400 nM; IC50 [3, 9]: 3800 ± 620 nM; IC50 [4, 10]: 2800 ± 310 nM; IC50 [5, 11]: 2300 ± 400 nM
149 to 151		COc1cc(C(=O)c2ccc3cccnc3c2)cc(OC)c1OC [Compound 10, 7-(3′,4′,5′-trimethoxybenzoyl)quinoline]	cytotoxicity / antiproliferative activity in words [6]: loss of cytotoxicity; IC50 [1, 7]: > 10000 nM; IC50 [2, 8]: > 10000 nM; IC50 [3, 9]: > 10000 nM; IC50 [4, 10]: > 10000 nM; IC50 [5, 11]: > 10000 nM
153 to 155		COc1cc(C(=O)c2cccc3cccnc23)cc(OC)c1OC [Compound 11, 8-(3′,4′,5′-trimethoxybenzoyl)quinoline]	IC50 [1, 7]: 3200 ± 700 nM; IC50 [2, 8]: 8100 ± 700 nM; IC50 [3, 9]: 5000 ± 920 nM; IC50 [4, 10]: 4500 ± 1100 nM; IC50 [5, 11]: 6000 ± 800 nM
162.5 to 164.1		COc1cc(C(=O)c2ccnc3c(OC)cccc23)cc(OC)c1OC [Compound 13, 8-methoxy-4-(3′,4′,5′-trimethoxybenzoyl)quinoline]	cytotoxicity / antiproliferative activity in words [6]: over an order of magnitude increase in activity over the parental compound 7; IC50 ([6]; Homo sapiens, mean of KB, H460, HT29, MKN45, KB-VIN10, read-out: mean IC50 value against five cancer cell lines): 164 nM; IC50 [1, 7]: 147 ± 25.4 nM; IC50 [2, 8]: 155 ± 15.1 nM; IC50 [3, 9]: 193 ± 35.3 nM; IC50 [4, 10]: 162 ± 28.7 nM; IC50 [5, 11]: 165 ± 33 nM
175 to 176		COc1cc(C(=O)c2ccc3c(ccc[n+]3[O-])c2)cc(OC)c1OC [Compound 16, 6-(3′,4′,5′-trimethoxybenzoyl)quinoline N-oxide]	fold reduction of activity compared with compound 9 ([6]; versus compound 9): > 10 fold; IC50 [1, 7]: 617 ± 85 nM; IC50 [2, 8]: 830 ± 172 nM; IC50 [3, 9]: 1100 ± 150 nM; IC50 [4, 10]: 872 ± 86.2 nM; IC50 [5, 11]: 764 ± 111 nM
187 to 188		COc1cc(C(=O)c2ccc3c(ccc[n+]3C)c2)cc(OC)c1OC.[I-] [Compound 17, 6-(3′,4′,5′-trimethoxybenzoyl)-1-methylquinolinium iodide]	cytotoxicity / antiproliferative activity in words ([6]; five cancer cell lines): drastic loss of activity; IC50 [1, 7]: > 10000 nM; IC50 [2, 8]: > 10000 nM; IC50 [3, 9]: > 10000 nM; IC50 [4, 10]: > 10000 nM; IC50 [5, 11]: > 10000 nM
201 to 203	> 10000	COc1cc(C(=O)c2ccc3c(-c4ccc(O)cc4)c(OC)ccc3n2)cc(OC)c1OC [Compound 30, 5-(4″-hydroxyphenyl)-6-methoxy-2-(3′,4′,5′-trimethoxybenzoyl)quinoline]	
203 to 205	472	COc1cc(C(=O)c2ccc3c(-c4ccncc4)c(OC)ccc3n2)cc(OC)c1OC [Compound 33, 6-methoxy-5-pyridinyl-2-(3′,4′,5′-trimethoxybenzoyl)quinoline]	
202 to 204	451	COc1cc(C(=O)c2ccc3c(I)c(OC)ccc3n2)cc(OC)c1OC [Compound 34, 5-iodo-6-methoxy-2-(3′,4′,5′-trimethoxybenzoyl)quinoline]	
163 to 165	108	COc1cc(C(=O)c2ccc3c(Br)c(OC)ccc3n2)cc(OC)c1OC [Compound 42, 5-bromo-6-methoxy-2-(3′,4′,5′-trimethoxybenzoyl)quinoline]	
191 to 192	17	COc1cc(C(=O)c2ccc3c(C#N)c(OC)ccc3n2)cc(OC)c1OC [Compound 43, 5-cyano-6-methoxy-2-(3′,4′,5′-trimethoxybenzoyl)quinoline]	
151 to 153	495	COc1cc(C(=O)c2ccc3c(C#CC(C)(C)O)c(OC)ccc3n2)cc(OC)c1OC [Compound 44, 5-(3″-hydroxy-3″-methylbut-1″-ynyl)-6-methoxy-2-(3′,4′,5′-trimethoxybenzoyl)quinoline]	
176 to 177	45	COc1cc(C(=O)c2ccc3c(Cl)c(OC)ccc3n2)cc(OC)c1OC [Compound 47, 5-chloro-6-methoxy-2-(3′,4′,5′-trimethoxybenzoyl)quinoline]	
103 to 105	> 1000	COc1ccc(C(=O)c2ccc3c(OC)c(OC)c(OC)cc3n2)cc1 [Compound 49, 2-(4′-methoxybenzoyl)-5,6,7-trimethoxyquinoline]	
137 to 139	> 10000	COc1ccc(C(=O)c2ccc3c(OC)c(OC)c(OC)cc3n2)cc1F [Compound 50, 2-(3′-fluoro-4′-methoxybenzoyl)-5,6,7-trimethoxyquinoline]	
145 to 146		COc1cc2nc(C(=O)c3ccc(F)cc3)ccc2c(OC)c1OC [Compound 51, 2-(4′-fluorobenzoyl)-5,6,7-trimethoxyquinoline]	
	1300	COc1ccc(C(=O)c2ccnc3c(OC)c(OC)c(OC)cc23)cc1 [Compound 54, 4-(4′-methoxybenzoyl)-6,7,8-trimethoxyquinoline]	
222 to 223	> 10000	COc1cc(-c2ccc3c(N)c(OC)ccc3n2)cc(OC)c1OC [Compound 58, 5-amino-6-methoxy-2-(3′,4′,5′-trimethoxyphenyl)quinoline]	
209 to 210		COc1cc(Oc2ccc3c(N)c(OC)ccc3n2)cc(OC)c1OC [Compound 60, 5-amino-6-methoxy-2-(3′,4′,5′-trimethoxyphenoxy)quinoline]	
222 to 223	> 10000	COc1cc(Nc2ccc3c(N)c(OC)ccc3n2)cc(OC)c1OC [Compound 62, 5-amino-6-methoxy-2-(3′,4′,5′-trimethoxyphenylamino)quinoline]	
136 to 137	> 10000	COc1ccc(-c2ccc3c(OC)c(OC)c(OC)cc3n2)cc1 [Compound 64, 2-(4′-methoxyphenyl)-5,6,7-trimethoxyquinoline]	
154 to 155	> 10000	COc1cc2nc(-c3ccc(N(C)C)cc3)ccc2c(OC)c1OC [Compound 65, 2-[4′-(N,N-dimethylamino)phenyl]-5,6,7-trimethoxyquinoline]	
129 to 130	> 10000	COc1ccc(-c2ccc3c(OC)c(OC)c(OC)cc3n2)cc1F [Compound 66, 2-(3′-fluoro-4′-methoxyphenyl)-5,6,7-trimethoxyquinoline]	
117 to 118	1670	COc1ccc(C(=O)c2ccnc3c(OC)c(OC)c(OC)cc23)cc1F [Compound 67, 4-(3′-fluoro-4′-methoxybenzoyl)-6,7,8-trimethoxyquinoline]	
	226	COc1cc2c(C(=O)c3ccc(N(C)C)cc3)ccnc2c(OC)c1OC [Compound 68, 4-[4′-(N,N-dimethyl)-benzoyl]-6,7,8-trimethoxyquinoline]	
149 to 151		COc1cc(C(=O)c2ccc3nccnc3c2)cc(OC)c1OC [Compound 75, 6-(3′,4′,5′-trimethoxybenzoyl)quinoxaline]	
	< 10	COc1cc(Sc2ccc3c(N)c(OC)ccc3n2)cc(OC)c1OC [Compound 82, 5-amino-6-methoxy-2-(3′,4′,5′-trimethoxyphenylthio)quinoline]	
	< 10	COc1cc(S(=O)(=O)c2ccc3c(N)c(OC)ccc3n2)cc(OC)c1OC [Compound 84, 5-amino-6-methoxy-2-(3′,4′,5′-trimethoxyphenylsulfonyl)quinoline]	
	471	COc1cc(C(=O)c2ccc3c(O)c(OC)ccc3n2)cc(OC)c1O [Compound 87, 5-hydroxy-6-methoxy-2-(4′-hydroxy-3′,5′-dimethoxybenzoyl)quinoline]	

SMILES	melting point [°C]	IC50 [2, 12] [nM]	further results
COc1cc(C(=O)c2ccnc3ccccc23)cc(OC)c1OC [Compound 7, 4-(3′,4′,5′-trimethoxybenzoyl)quinoline]	109 to 110		IC50 ([1]; MKN-45, 72 h): 920 ± 90 nM; IC50 ([2]; KB, 72 h, read-out: IC50 on the proliferation of cells, KB): 3500 ± 700 nM; IC50 ([3]; NCI-H460, 72 h): 3800 ± 520 nM; IC50 ([4]; HT-29, 72 h): 2300 ± 480 nM; IC50 ([5]; KB-VIN10, 72 h): 2200 ± 600 nM
